{"source": "patent US20020169193A1", "about": "“Alkylphenyliminoimidazolidine derivatives for treating urinary incontinence” (priority 2001, published 2002)", "key": {"[1]": {"test_system": "Human Urethra", "test": "Efficacy: contraction of human urethra compared with noradrenaline", "details": "percentage of contraction compared with noradrenaline", "experimental": "(§1) The efficacy and selectivity of the compounds is determined as follows:\n(§2) Maximum contraction in the dog and activity on human urethra are percentages of contraction compared with noradrenaline. Selectivity in the dog is the percentage contraction of the dog's femoral artery at 10^−5 M—percentage contraction of the carotid artery in the dog at 10^−5 M."}, "[2]": {"test_system": "the Dog", "test": "Efficacy: maximum contraction in the dog compared with noradrenaline", "details": "percentage of contraction compared with noradrenaline", "experimental": "as §1, §2"}, "[3]": {"biological_target": "CYP2D6 (Homo sapiens, UniProt P10635)", "sequence (P10635 whole entry)": "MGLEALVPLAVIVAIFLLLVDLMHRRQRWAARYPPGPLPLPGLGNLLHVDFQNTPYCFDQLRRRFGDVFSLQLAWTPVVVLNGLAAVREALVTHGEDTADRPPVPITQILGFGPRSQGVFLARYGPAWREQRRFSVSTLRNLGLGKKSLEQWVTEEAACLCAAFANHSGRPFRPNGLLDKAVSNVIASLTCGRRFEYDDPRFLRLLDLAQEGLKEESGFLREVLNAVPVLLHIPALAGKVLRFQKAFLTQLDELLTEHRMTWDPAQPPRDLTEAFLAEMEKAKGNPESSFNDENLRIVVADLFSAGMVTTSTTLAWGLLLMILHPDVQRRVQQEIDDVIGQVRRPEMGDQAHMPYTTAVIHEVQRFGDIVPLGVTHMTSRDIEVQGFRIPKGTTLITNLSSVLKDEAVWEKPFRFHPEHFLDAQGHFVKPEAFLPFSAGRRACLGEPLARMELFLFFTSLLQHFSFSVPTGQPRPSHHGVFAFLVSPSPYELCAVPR", "test": "Metabolism: substrate breakdown by enzyme CYP2D6", "type": "in vitro ADME", "experimental": "To determine the metabolism the enzyme CYP2D6 was allowed to act on the test substances. After 30 minutes, a check was made to see how much of the test substance put in had been degraded by the enzyme."}, "[4]": {"test_system": "dog's femoral artery / carotid artery in the dog", "test": "Selectivity in the dog: femoral artery versus carotid artery contraction", "details": "percentage contraction of femoral artery at 10^−5 M — percentage contraction of carotid artery at 10^−5 M", "experimental": "as §1, §2"}, "[5]": {"test_system": "HLM", "test": "Metabolism: decomposition under the effect of HLM", "type": "in vitro ADME", "experimental": "The decomposition under the effect of the enzyme HLM/60 minutes was tested analogously."}, "[6]": {"test": "Bioavailability, oral versus intravenous administration in rats, plasma HPLC", "type": "in vivo", "details": "male fasted rats, oral vs intravenous, pooled plasma; for bioavailability: rat", "experimental": "To determine the bioavailability, the test substances were administered orally to a group of 8 male fasted rats. As a control, animals in an identical second group were given the test substances intravenously. At specified times after administration (10 minutes, 30 minutes, 1 hour, 2 hours and 4 hours, and additionally 6 hours in the case of the animals in the oral group) 1 mL blood samples were taken from the animals in both groups. The blood samples taken in each group were mixed together (8 mL). The content of the corresponding test substances in the blood for the appropriate time was determined from the plasma after further working up by HPLC (High Performance Liquid Chromatography) using standard methods and correlated for the two groups."}}, "data": [{"compound": "Cc1c(NC2=NCCN2)cccc1C(C)C", "note": "[Compound 1, 3′-isopropyl-2′-methylphen-1′-yl-2-iminoimidazolidine]", "values": [{"measurement": "Activity on Human Urethra", "setting": "[1]", "result": 11, "unit": "%"}, {"measurement": "Activity in the Dog", "setting": "[2]", "result": 78, "unit": "%"}, {"measurement": "% Substrate Breakdown After 30 Minutes Incubation with CYP2D6", "setting": "[3]", "result": 18.2, "unit": "%"}, {"measurement": "Selectivity in the Dog", "setting": "[4]", "result": 0.7}, {"measurement": "% Substrate Breakdown After 60 Minutes Incubation with HLM", "setting": "[5]", "result": 13.5, "unit": "%"}]}, {"compound": "COc1ccc(C(C)(C)C)cc1N=C1NCCN1", "note": "[Compound 2, 3′-tert-butyl-6′-methoxyphen-1′-yl-2-iminoimidazolidine]", "values": [{"measurement": "Activity on Human Urethra", "setting": "[1]", "result": 30, "unit": "%"}, {"measurement": "Activity in the Dog", "setting": "[2]", "result": 71, "unit": "%"}, {"measurement": "% Substrate Breakdown After 30 Minutes Incubation with CYP2D6", "setting": "[3]", "result": 0.7, "unit": "%"}, {"measurement": "Bioavailability in %", "setting": "[6]", "result": 34, "unit": "%"}, {"measurement": "Selectivity in the Dog", "setting": "[4]", "result": 0.6}, {"measurement": "% Substrate Breakdown After 60 Minutes Incubation with HLM", "setting": "[5]", "result": 2.7, "unit": "%"}]}, {"compound": "Cc1c(C(C)C)ccc(Cl)c1NC1=NCCN1", "note": "[Compound 3, 6′-chloro-3′-isopropyl-2′-methylphen-1′-yl-2-iminoimidazolidine]", "values": [{"measurement": "Activity on Human Urethra", "setting": "[1]", "result": 41, "unit": "%"}, {"measurement": "Activity in the Dog", "setting": "[2]", "result": 70, "unit": "%"}, {"measurement": "% Substrate Breakdown After 30 Minutes Incubation with CYP2D6", "setting": "[3]", "result": 6.1, "unit": "%"}, {"measurement": "bioavailability", "setting": "[6]", "result": 8, "unit": "%"}, {"measurement": "Selectivity in the Dog", "setting": "[4]", "result": 0.7}, {"measurement": "% Substrate Breakdown After 60 Minutes Incubation with HLM", "setting": "[5]", "result": 11.7, "unit": "%"}]}, {"compound": "Cc1c(NC2=NCCN2)ccc(Cl)c1C(C)C", "note": "[Compound 4, 4′-chloro-3′-isopropyl-2′-methylphen-1′-yl-2-iminoimidazolidine]", "values": [{"measurement": "Activity in the Dog", "setting": "[2]", "result": 59, "unit": "%"}, {"measurement": "% Substrate Breakdown After 30 Minutes Incubation with CYP2D6", "setting": "[3]", "result": 7.6, "unit": "%"}, {"measurement": "Selectivity in the Dog", "setting": "[4]", "result": 0.5}, {"measurement": "% Substrate Breakdown After 60 Minutes Incubation with HLM", "setting": "[5]", "result": 5.5, "unit": "%"}]}, {"compound": "Cc1c(C(C)C)ccc(Br)c1NC1=NCCN1", "note": "[Compound 5, 6′-bromo-3′-isopropyl-2′-methylphen-1′-yl-2-iminoimidazolidine]", "values": [{"measurement": "Activity in the Dog", "setting": "[2]", "result": 34, "unit": "%"}, {"measurement": "% Substrate Breakdown After 30 Minutes Incubation with CYP2D6", "setting": "[3]", "result": 8.7, "unit": "%"}, {"measurement": "Selectivity in the Dog", "setting": "[4]", "result": 0.4}, {"measurement": "% Substrate Breakdown After 60 Minutes Incubation with HLM", "setting": "[5]", "result": 7.5, "unit": "%"}]}, {"compound": "CC(C)(C)c1ccc(Br)c(N=C2NCCN2)c1", "note": "[Compound 6, 6′-bromo-3′-tert-butylphen-1′-yl-2-iminoimidazolidine]", "values": [{"measurement": "Activity in the Dog", "setting": "[2]", "result": 28, "unit": "%"}, {"measurement": "% Substrate Breakdown After 30 Minutes Incubation with CYP2D6", "setting": "[3]", "result": 3.0, "unit": "%"}, {"measurement": "% Substrate Breakdown After 60 Minutes Incubation with HLM", "setting": "[5]", "result": 2.8, "unit": "%"}]}, {"compound": "Cc1c(NC2=NCCN2)ccc(Br)c1C(C)C", "note": "[Compound 7, 4′-bromo-3′-isopropyl-2′-methylphen-1′-yl-2-iminoimidazolidine]", "values": [{"measurement": "Activity on Human Urethra", "setting": "[1]", "result": 21, "unit": "%"}, {"measurement": "Activity in the Dog", "setting": "[2]", "result": 70, "unit": "%"}, {"measurement": "% Substrate Breakdown After 30 Minutes Incubation with CYP2D6", "setting": "[3]", "result": 5.0, "unit": "%"}, {"measurement": "bioavailability", "setting": "[6]", "result": 53, "unit": "%"}, {"measurement": "Selectivity in the Dog", "setting": "[4]", "result": 0.7}]}]}
